Measurements: paper PMC5599463, “PK/PD studies on non-selective PDE inhibitors in rats using cAMP as a marker of pharmacological response” (Naunyn-Schmiedeberg's Archives of Pharmacology, 2017)
Read-outs that look alike come from different tables or passages of the source.

Key:
[1] = tested on: plasma cAMP concentrations; design: method as in Cheng et al. [1997]; conditions: ref Cheng et al. [1997], cited from earlier work; for plasma cAMP concentrations in mice: 10 mg kg^−1 p.o.; for cAMP levels in mice: 10 times higher dose than that of the PDE4 inhibitors (10 mg kg^−1 p.o.)
cAMP plasma levels = conditions: cited from earlier work
[2] = target: T1, human recombinant PDE4B (hrPDE4B) (Homo sapiens, UniProt Q07343); test: PDE-Glo Phosphodiesterase Assay, hrPDE4B inhibition; assay type: biochemical; conditions: non-linear regression, in vitro
T1 construct: purchased SignalChem, Richmond, Canada
T1 sequence (Q07343 whole entry): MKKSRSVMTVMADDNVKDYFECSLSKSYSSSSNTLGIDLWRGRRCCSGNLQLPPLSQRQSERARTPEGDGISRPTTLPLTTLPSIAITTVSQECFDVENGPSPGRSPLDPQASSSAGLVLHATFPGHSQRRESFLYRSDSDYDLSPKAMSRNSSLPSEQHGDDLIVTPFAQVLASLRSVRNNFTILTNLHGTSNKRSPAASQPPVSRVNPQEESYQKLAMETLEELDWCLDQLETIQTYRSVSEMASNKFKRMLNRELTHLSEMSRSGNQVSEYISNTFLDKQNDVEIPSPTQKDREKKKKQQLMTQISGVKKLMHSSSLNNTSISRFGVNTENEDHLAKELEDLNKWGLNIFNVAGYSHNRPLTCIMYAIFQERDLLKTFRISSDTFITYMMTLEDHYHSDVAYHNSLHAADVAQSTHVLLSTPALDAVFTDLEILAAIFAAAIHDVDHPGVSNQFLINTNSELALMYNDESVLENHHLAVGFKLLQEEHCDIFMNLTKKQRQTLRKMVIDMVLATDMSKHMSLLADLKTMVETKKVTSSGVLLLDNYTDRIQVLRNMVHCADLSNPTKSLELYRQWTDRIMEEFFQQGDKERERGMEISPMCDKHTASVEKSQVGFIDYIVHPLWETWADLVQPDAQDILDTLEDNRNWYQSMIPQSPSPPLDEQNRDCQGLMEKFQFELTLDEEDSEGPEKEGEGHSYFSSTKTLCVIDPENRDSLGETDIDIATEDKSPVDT
Description: (§1) The tested compounds were dissolved in DMSO, and a serial dilution of the inhibitors was performed using 1× PDE-Glo reaction buffer. Then, 1 μL of diluted inhibitors and 2.5 μL of cAMP solution were added to each well. After 10 min of incubation in 30 °C, 2.5 μL of PDE-Glo™ Termination Buffer and 2.5 μL of PDE-Glo™ Detection Solution were added and the plate was incubated for 20 min at room temperature. Finally, 10 μL of Kinase-Glo® Reagent was pipetted to each well and after 10 min of incubation, the luminescence was measured using a microplate luminometer (POLARstar Omega, BMG LABTECH, Ortenberg, Germany). All data points are the average of two determinations.

[3] = target: T2, human recombinant PDE7A (hrPDE7A) (Homo sapiens, UniProt Q13946); test: PDE-Glo Phosphodiesterase Assay, hrPDE7A inhibition; assay type: biochemical; conditions: for IC50: hrPDE7A, non-linear regression, in vitro
T2 construct: purchased SignalChem, Richmond, Canada
T2 sequence (Q13946 whole entry): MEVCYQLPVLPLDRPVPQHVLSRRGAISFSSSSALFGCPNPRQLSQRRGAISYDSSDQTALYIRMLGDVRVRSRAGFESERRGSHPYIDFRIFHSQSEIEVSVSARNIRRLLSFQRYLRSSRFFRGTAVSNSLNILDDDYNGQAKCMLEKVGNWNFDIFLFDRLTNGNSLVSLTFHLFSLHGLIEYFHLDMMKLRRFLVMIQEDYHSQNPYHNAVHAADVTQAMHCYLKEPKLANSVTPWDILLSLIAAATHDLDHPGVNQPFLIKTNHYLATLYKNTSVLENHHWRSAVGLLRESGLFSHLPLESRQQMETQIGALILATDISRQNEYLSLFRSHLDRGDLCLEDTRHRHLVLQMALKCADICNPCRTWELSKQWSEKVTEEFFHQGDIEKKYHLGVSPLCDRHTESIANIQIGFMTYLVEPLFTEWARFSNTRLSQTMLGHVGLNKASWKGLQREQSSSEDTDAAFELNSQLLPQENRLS
Description: as §1, with “Briefly, 1,5 μl of 1× PDE-Glo reaction buffer containing 10 mU of purified hrPDE4B or hrPDE7A (SignalChem, Richmond, Canada) was pipetted into 384-well plate wells (Thermo Scientific, USA). The tested” for “The tested”

[4] = tested on: plasma cAMP concentration; design: method as in Tanahashi et al. [1999]; conditions: ref Tanahashi et al. [1999]; cited from earlier work
[5] = tested on: plasma cAMP concentrations; test: Plasma cAMP in rats with endotoxemia after i.p. theophylline (own unpublished data); assay type: in vivo; conditions: i.p. 50 mg kg^−1, 0.5 h after administration
[6] = tested on: cAMP levels in rat plasma; test: PK/PD (IDR model II) of plasma cAMP in LPS-challenged rats; assay type: in vivo, Male Wistar rats; conditions: for cAMP levels in rat plasma after administration: 40 or 80 mg kg^−1 i.v. with LPS; for IC50: Rattus norvegicus
Description: (§2) All compounds were directly dissolved in 0.9% sterile saline and used within 1 day of preparation. The animals were divided into five groups (n = 3–4). […] All injections (1 mL kg^−1) were given to the tail vein of the rat under isoflurane anaesthesia. […] Subsequently, samples were kept on ice and centrifuged for 10 min at 3000×g at 4 °C (EBA 12 R, Hettich, Germany). The individual plasma samples were harvested and stored at −80 °C until analysis.
The levels of cAMP in rat plasma were measured using the same HPLC system and a fluorescence detector (model FL-2485). The analysis was performed after incubation of plasma with 2-chloroacetaldehyde as a derivatization reagent in elevated temperature to form the fluorescing derivative—1,N^6-etheno-cAMP. To 100 μL of plasma (or plasma spiked with water standard solution of cAMP), 15 μL of 2 M 2-chloroacetaldehyde solution and 50 μL of 0.5 M acetate buffer (pH = 4.5) were added to a snap-cap tubes. Samples were then vortex-mixed (Reax top, Heidolph, Germany) for 20 s and incubated at 80 °C for 20 min. Thereafter, the reaction mixture was cooled on ice, the samples were centrifuged (3000×g, 10 min) and 100 μL of supernatants was placed in the autosampler vials. The volume of injection was 50 μL. The separation was performed at isocratic conditions at 35 °C using the mobile phase composed of 20 mM citric-phosphate buffer (pH = 3.2) and methanol mixed at the ratio of 91:9 (v/v) and pumped at a flow rate of 1.3 mL min^−1. The excitation and emission wavelengths were set to 280 and 420 nm, respectively. In these conditions, the retention time of 1,N^6-etheno-cAMP was 6 min.
Changes in plasma cAMP concentrations (CcAMP) over time following each compound administration may be described by the following equation:
1 dCcAMP/dt=kin−kout⋅It⋅CcAMP
3 It=1−Imax⋅Cp^γ/IC50^γ+Cp^γ
The second approach assumes that both compounds under investigation act with different potencies. Based on the results of the in vitro study, an additive interaction model was used (Eq. 4):
I max and γ in Eqs. (3) and (4) were fixed to 1 during fitting procedure.
(§3) The peak cAMP and TNF-α plasma levels following administration of LPS alone or LPS simultaneously with both doses of each compound were compared using a one-way ANOVA and Tukey’s HSD post hoc test. The normality of data distribution was checked by Shapiro–Wilk test. The relationship between decimal logarithms of peak cAMP and TNF-α plasma concentrations was verified by least squares linear regression analysis. All statistical analyses were performed using Statistica v. 12 (StatSoft Inc., USA). The significance level p was set at 0.05.

[7] = Pharmacokinetics after i.v. administration to endotoxemic rats (compartmental modelling); assay type: in vivo, Male Wistar rats
Description: as §2
Then, the samples were extracted with 3 mL of dichloromethane for 20 min on a shaker (VXR Vibrax, IKA, Germany). Subsequently, all tubes were centrifuged (2000×g, 15 min) and organic layers were transferred to new glass tubes and evaporated under gentle stream of nitrogen at 37 °C. Dry residues were dissolved in 100 μL of mobile phase and placed in the autosampler vials. The volume of injection was set to 50 μL. The HPLC system (LaChrom Elite, Merck-Hitachi, Darmstadt, Germany) consisted of an L-2130 pump, an L-2200 autosampler, an L-2450 diode array detector and an L-2350 column oven. EZChrome Elite v. 3.2 (Merck-Hitachi) software was used for data acquisition. The analysis was performed on a LiChrospher 100 RP-18 column (250 mm × 4 mm) with a particle size of 5 μm protected with a LiChroCART (4 mm × 4 mm) guard column (Merck, Germany). The mobile phase consisted of dioxan, acetonitrile and aqueous solution of acetic acid (pH = 3.0) mixed at the ratio of 6.5:6.5:87 (v/v/v), respectively, and pumped at a flow rate of 1.2 mL min^−1. Analytical wavelength was set to 275 nm and temperature of separation was 35 °C.
To this end, one- or two-compartment pharmacokinetic models with linear or Michaelis–Menten type saturable elimination from the central compartment were tested. Both dose levels in each case were simultaneously fitted to obtain a single set of parameters. The final pharmacokinetic models for PTX and (±)-LSF were selected on the basis of visual inspection of the fitting, examination of residuals, parameter precision, Akaike Information Criteria (AIC), Bayesian Information Criteria (BIC) and analysis of the correlation matrix. Pharmacokinetic analysis was performed using Phoenix WinNonlin v. 6.3 (Pharsight Corp, Certara, St. Louis, MO, USA).

TNF-α plasma levels = test: Plasma TNF-α levels in endotoxemic rats (ELISA); assay type: in vivo, Male Wistar rats; conditions: both doses (40 and 80 mg kg^−1 i.v.) with LPS, 90 min, p < 0.05
Description: as §2
Plasma TNF-α levels were measured by rat TNF-α Quantikine ELISA kit (R&D Systems, Minneapolis, MN, USA) according to the manufacturer’s protocol. The limit of quantification was 12.5 pg mL^−1.
as §3

[8] = tested on: IL-12-induced murine T helper 1 (Th1) differentiation; design: method as in Bright et al. [1998]; conditions: dose-dependent manner; ref Bright et al. [1998]; cited from earlier work
[9] = design: method as in Wyska et al. [2007]; conditions: mice; ref Wyska et al. [2007]; cited from earlier work
[10] = Interaction indirect response model II, rats challenged with LPS, i.v., read-out: IC50 (plasma concentration producing 50% of maximum inhibition of cAMP kout), final estimate (CV%)
[11] = interaction IDR model II, endotoxemic rats, read-out: IC50 calculated using PK/PD model after conversion to

## COc1ccc(C2CNC(=O)NC2)cc1O[C@H]1C[C@@H]2CC[C@H]1C2 [CP-80,633]
[1]
  plasma cAMP concentrations in mice: increased plasma cAMP concentrations

## CCCSc1nc(N[C@@H]2C[C@H]2c2ccc(F)c(F)c2)c2nnn([C@@H]3C[C@H](OCCO)[C@@H](O)[C@H]3O)c2n1 [ticagrelor]
cAMP plasma levels; patients, ref Li et al. [2017]
  levels of cAMP in treated patients: Elevated levels of cAMP

## C[C@H](O)CCCCn1c(=O)c2c(ncn2C)n(C)c1=O [S-(+)-LSF]
[2]
  IC50: 52.5 µM
[3]
  IC50: 328 µM

## CN(C(=O)CCCOc1ccc2[nH]c(=O)ccc2c1)C1CCCCC1 [cilostamide]
[4]
  plasma cAMP concentration in dogs: no

## Cn1c(=O)c2[nH]cnc2n(C)c1=O [theophylline]
[1]; mice, orally 100 mg kg^−1, 20 min post-dose
  plasma levels of cAMP: 296.9 pmol/mL
[5]
  plasma concentrations of cAMP: 228.22 pmol/mL

## CCOC(=O)C1=C[C@]2(CC)CCCN3CCc4c(n1c1ccccc41)[C@@H]32 [vinpocetine]
[1]
  cAMP levels in mice: failed to alter cAMP levels significantly

## COc1ccc(C2CNC(=O)C2)cc1OC1CCCC1 (centres unmarked) [rolipram]
[1]
  plasma cAMP concentrations in mice: increased plasma cAMP concentrations
[4]
  plasma cAMP concentration in dogs: elevated plasma cAMP concentration in dogs in a dose-dependent manner

## CC(C)Cn1c(=O)n(C)c(=O)c2[nH]cnc21 [IBMX, 1-methyl-3-(2-methylpropyl)-7H–purine-2,6-dione]
[2]
  IC50: 46.6 µM
[3]
  IC50: 77.7 µM

## CC(=O)Nc1ccc(-c2c[nH]c(=O)cn2)cc1 [SKF-94,120]
[1]
  cAMP levels in mice: failed to alter cAMP levels significantly

## CC(O)CCCCn1c(=O)c2c(ncn2C)n(C)c1=O (racemic) [(±)-LSF, (±)-1-(5-hydroxyhexyl)-3,7-dimethylpurine-2,6-dione]
[6]
  cAMP levels in rat plasma after administration: increase in cAMP levels in rat plasma in a dose-dependent manner
[6]; PK/PD model, rats
  lower in vivo IC50 value compared to PTX: approximately 20%
[6]; [10]
  IC50: 3.43 µg/mL
[6]; [11]
  IC50: 12.2 µM
[6]; dose of 40 mg kg^−1 i.v. with LPS 1 mg kg^−1, p > 0.05
  peak cAMP level in comparison with the group receiving LPS only: did not increase
[7]; (±)-LSF parent drug, i.v. 40 and 80 mg kg^−1, endotoxemic rats, one-compartment Michaelis-Menten model
  VLSF (volume of (±)-LSF compartment), final estimate (CV%): 1.22 (3.44) L kg^−1
[7]; male, Wistar, rat, plasma, iv, (±)-LSF parent drug, i.v., endotoxemic rats, read-out: Km (drug concentration at which elimination rate is half-maximal), final estimate (CV%)
  Km: 6.02 µg/mL
TNF-α plasma levels
  TNF-α concentrations in plasma of endotoxemic rats: significant decrease

## OCCN(CCO)c1nc(N2CCCCC2)c2nc(N(CCO)CCO)nc(N3CCCCC3)c2n1 [dipyridamole]
[1]
  cAMP levels in mice: failed to alter cAMP levels significantly

## CCCOc1ccccc1-c1nc2nn[nH]c2c(=O)[nH]1 [zaprinast]
[1]
  cAMP levels in mice: failed to alter cAMP levels significantly

## C[C@@H](O)CCCCn1c(=O)c2c(ncn2C)n(C)c1=O [R-(-)-LSF]
[2]
  IC50: 49.1 µM
[8]
  inhibition of IL-12-induced murine Th1 differentiation: inhibited
[9]
  Km: 15.08 mg/L
  Vmax: 2.33 mg/min/kg
[3]
  IC50: 266 µM

## COc1ccc2[nH]cc(CCNC(C)=O)c2c1 [melatonin]
cAMP plasma levels; administered orally, 1 h following administration, ref Zhdanova and Raz [1999]
  cAMP plasma levels in humans: significantly augmented

## CC(=O)CCCCn1c(=O)c2c(ncn2C)n(C)c1=O [PTX, 1-(5-oxohexyl)-3,7-dimethylpurine-2,6-dione]
[6]
  cAMP levels in rat plasma after administration: increase in cAMP levels in rat plasma in a dose-dependent manner
[6]; [10]
  IC50: 4.48 µg/mL
[6]; [11]
  IC50: 16.1 µM
[7]; male, Wistar, rat, plasma, iv, rats, i.v., read-out: elimination half-life (t0.5)
  half-life: 16.4 min
[7]; male, Wistar, rat, plasma, iv, read-out: ke (rate constant for disappearance of parent compound), final estimate (CV%) (converted)
  k el: 0.000933 s⁻¹
TNF-α plasma levels
  TNF-α concentrations in plasma of endotoxemic rats: significant decrease
[3]
  IC50: > 500 µM
[3]; in vitro assay
  activity as inhibitor of hrPDE7A: ineffective
cAMP plasma levels; healthy subjects, i.v. infusion 300 mg in 1 h, measured 1 h from beginning of infusion, ref Kruuse et al. [2000]
  cAMP plasma levels elevation compared to the placebo group: approximately 50%
